Experimental data published in ChEMBL document CHEMBL1136691, “Identification of novel and potent isoquinoline aminooxazole-based IMPDH inhibitors” (Bioorg Med Chem Lett, 2003).

Target: Inosine-5'-monophosphate dehydrogenase 2 (Homo sapiens, UniProt P12268)
Test: Inhibitory activity against inosine […] monophosphate dehydrogenase type II (IMPDH II)

| Structure (SMILES) | IC50 [µM] |
| --- | --- |
| Cc1cccc(NC(=O)Nc2ccc3nnccc3c2)c1 | > 1.7 |
| C=Cc1c(N)ccc2cnccc12 | 0.82 |
| O=C(Nc1ccccc1)Nc1ccc2cnccc2c1Br | 0.74 |
| COc1ccc2cnccc2c1Br | > 5 |
| O=C(Nc1ccccc1)Nc1ccc2cnccc2c1Cl | 1.66 |
| Cc1cccc(NC(=O)Nc2ccc3cncnc3c2)c1 | 0.15 |
| Nc1ccc2cnccc2c1Br | 0.55 |
| Cc1cccc(NC(=O)Nc2ccc3cnncc3c2)c1 | > 5 |
| Cc1ccccc1NC(=O)Nc1ccc2cnccc2c1 | 3.8 |
| O=C(Nc1ccccc1)Nc1ccc2cnccc2c1 | 0.74 |
| Nc1ccc2cnccc2c1N | > 5 |
| Cc1cccc(NC(=O)Nc2ccc3cnccc3c2)c1 | 0.018 |
| c1ccc(-c2cnc(Nc3ccc4cnccc4c3)o2)cc1 | 0.005 |
| C=CCc1c(N)ccc2cnccc12 | 3 |
| CC(=O)Nc1ccc2cnccc2c1Cl | > 5 |
| O=C(Nc1ccccc1)Nc1ccc2ccncc2c1 | > 5 |
| Cc1c(N)ccc2cnccc12 | > 5 |
| CC(=O)Nc1ccc2cnccc2c1 | > 5 |
| CCCc1c(N)ccc2cnccc12 | > 5 |
| c1ccc(-c2cnc(Nc3ccc4cncnc4c3)o2)cc1 | 0.06 |
| Nc1ccc2cnccc2c1 | > 5 |
| CC(=O)Nc1ccc2cnccc2c1Br | > 5 |
| O=C(NCc1ccccc1)Nc1ccc2cnccc2c1 | 0.4 |
| Cc1ccc(NC(=O)Nc2ccc3cnccc3c2)cc1 | 0.247 |
| Nc1ccc2cnccc2c1Cl | 1.2 |
